In ChEMBL document CHEMBL5154737, “Semisynthesis and biological evaluation of (+)-sclerotiorin derivatives as antitumor agents for the treatment of hepatocellular carcinoma” (Eur J Med Chem, 2022):
Structures can show the parent of a compound that is named as a salt.

Tests used:
[1] = system: Bel-7402; assay: Cytotoxicity against human Bel-7402 cells assessed as inhibition rate at 5 uM incubated for 72 hrs by MTT assay relative to control; type: functional; parameters: scale not given: the % may be the effect or the level left
[2] = system: Bel-7402; assay: Cytotoxicity against human Bel-7402 cells assessed as reduction in cell viability incubated for 72 hrs by MTT assay; type: functional, cell-based; conditions: Bel-7402, 72 h
[3] = Cytotoxicity against human HepG2 cells assessed as reduction in cell viability incubated for 72 hrs by MTT assay; type: toxicity, cell-based
[4] = system: ECa-109 cell line; assay: Cytotoxicity against human Eca-109 cells assessed as reduction in cell viability incubated for 72 hrs by MTT assay; type: functional, cell-based; conditions: ECa-109, 72 h
[5] = system: HeLa; assay: Cytotoxicity against human HeLa cells assessed as reduction in cell viability incubated for 72 hrs by MTT assay; type: functional, cell-based
[6] = system: Bel-7402; assay: cells; conditions: Homo sapiens, Bel-7402, 24 h, read-out: Activity
[7] = Cytotoxicity against human Biu-87 cells assessed as reduction in cell viability incubated for 72 hrs by MTT assay; type: functional, cell-based; conditions: BIU87, 72 h
[8] = system: PANC-1; assay: Cytotoxicity against human PANC-1 cells assessed as reduction in cell viability incubated for 72 hrs by MTT assay; type: functional, cell-based; conditions: PANC-1, 72 h

Question: With `CC[C@H](C)/C=C(C)/C=C/C1=CC2=C(Cl)C(=O)[C@](C)(OC(C)=O)C(=O)C2=CN1c1ccc(OC)c(OC)c1` as the compound, how does the Activity [1] read?
Answer: 8.16%

Question: With `COc1cccc2c1C(=O)c1c(O)c3c(c(O)c1C2=O)C[C@@](O)(C(=O)CO)C[C@@H]3O[C@H]1C[C@H](N)[C@H](O)[C@H](C)O1` [DOXORUBICIN HYDROCHLORIDE] as the compound, how does the IC50 [2] read?
Answer: 369 nM

Question: What about the IC50 at 72 h [3] of the same compound?
Answer: 450 nM

Question: What about the IC50 [4] of the same compound?
Answer: 201 nM

Question: What about the IC50 [5] of the same compound?
Answer: 602 nM

Question: With `CC[C@H](C)/C=C(C)/C=C/C1=CC2=C(Cl)C(=O)[C@](C)(OC(C)=O)C(=O)C2=CN1Cc1ccc(OC(F)(F)F)cc1` as the compound, how does the Activity [1] read?
Answer: 27.46%

Question: Which Activity [1] does the source give for `CC[C@H](C)/C=C(C)/C=C/C1=CC2=C(Cl)C(=O)[C@](C)(OC(C)=O)C(=O)C2=CN1Cc1ccc(C)cc1` here?
Answer: 16.2%

Question: For `CC[C@H](C)/C=C(C)/C=C/C1=CC2=C(Cl)C(=O)[C@](C)(O)C(=O)C2=CN1CCc1cccc(C(F)(F)F)c1`, which Activity [1] is on record?
Answer: 45.76%

Question: With `CC[C@H](C)/C=C(C)/C=C/C1=CC2=C(Cl)C(=O)[C@](C)(OC(C)=O)C(=O)C2=CN1c1cc(OC)c(OC)c(OC)c1` as the compound, how does the Activity [1] read?
Answer: 9.61%

Question: Which Activity [1] does the source give for `CC[C@H](C)/C=C(C)/C=C/C1=CC2=C(Cl)C(=O)[C@](C)(O)C(=O)C2=CN1c1cc(OC)c(OC)c(OC)c1` here?
Answer: 11.27%

Question: For `CC[C@H](C)/C=C(C)/C=C/C1=CC2=C(Cl)C(=O)[C@](C)(OC(C)=O)C(=O)C2=CN1c1ccc(C(F)(F)F)cc1`, which Activity [1] is on record?
Answer: 28.9%

Question: With `C=CCN1C=C2C(=O)[C@@](C)(OC(C)=O)C(=O)C(Cl)=C2C=C1/C=C/C(C)=C/[C@@H](C)CC` as the compound, how does the Activity [1] read?
Answer: 8.65%

Question: Which Activity [1] does the source give for `CC[C@H](C)/C=C(C)/C=C/C1=CC2=C(Cl)C(=O)[C@](C)(O)C(=O)C2=CN1c1ccc(OC(F)(F)F)cc1` here?
Answer: 43.16%

Question: With `CC[C@H](C)/C=C(C)/C=C/C1=CC2=C(Cl)C(=O)[C@](C)(O)C(=O)C2=CN1Cc1ccc(C(F)(F)F)cn1` as the compound, how does the Activity [1] read?
Answer: 10.55%

Question: Which Activity [1] does the source give for `CC[C@H](C)/C=C(C)/C=C/C1=CC2=C(Cl)C(=O)[C@](C)(OC(C)=O)C(=O)C2=CN1c1cc(OC)cc(OC)c1` here?
Answer: 7.94%

Question: With `CC[C@H](C)/C=C(C)/C=C/C1=CC2=C(Cl)C(=O)[C@](C)(OC(C)=O)C(=O)C2=CN1c1ccc(OC)cc1` as the compound, how does the Activity [1] read?
Answer: 7.45%

Question: Which viability at 20 µM [6] does the source give for `N#CC(=C(/N)Sc1ccccc1N)/C(C#N)=C(\N)Sc1ccccc1N` here?
Answer: 88.3%

Question: For `CC[C@H](C)/C=C(C)/C=C/C1=CC2=C(Cl)C(=O)[C@](C)(O)C(=O)C2=CN1c1ccc(C(F)(F)F)cc1`, which Activity [1] is on record?
Answer: 63.16%

Question: With `C#CCN1C=C2C(=O)[C@@](C)(OC(C)=O)C(=O)C(Cl)=C2C=C1/C=C/C(C)=C/[C@@H](C)CC` as the compound, how does the Activity [1] read?
Answer: 6.81%

Question: For `CC[C@H](C)/C=C(C)/C=C/C1=CC2=C(Cl)C(=O)[C@](C)(O)C(=O)C2=CN1Cc1ccc(C(F)(F)F)cc1`, which IC50 [2] is on record?
Answer: 1450 nM

Question: And the IC50 at 72 h [3]?
Answer: 3360 nM

Question: What about the IC50 [7] of the same compound?
Answer: 3100 nM

Question: And the IC50 [4]?
Answer: 1480 nM

Question: And the IC50 [8]?
Answer: 1440 nM

Question: What about the Activity [1] of the same compound?
Answer: 81.73%

Question: What about the IC50 [5] of the same compound?
Answer: 2400 nM

Question: With `CC[C@H](C)/C=C(C)/C=C/C1=CC2=C(Cl)C(=O)[C@](C)(O)C(=O)C2=CN1Cc1ccc(C(F)(F)F)nc1` as the compound, how does the Activity [1] read?
Answer: 12.09%

Question: With `CC[C@H](C)/C=C(C)/C=C/C1=CC2=C(Cl)C(=O)[C@](C)(O)C(=O)C2=CN1Cc1ccc(C)cc1` as the compound, how does the Activity [1] read?
Answer: 20.52%

Question: Which Activity [1] does the source give for `CC[C@H](C)/C=C(C)/C=C/C1=CC2=C(Cl)C(=O)[C@](C)(OC(C)=O)C(=O)C2=CN1Cc1ccc(C(F)(F)F)nc1` here?
Answer: 21.53%

Question: Which Activity [1] does the source give for `CC[C@H](C)/C=C(C)/C=C/C1=CC2=C(Cl)C(=O)[C@](C)(O)C(=O)C2=CN1Cc1ccc(OC)cc1` here?
Answer: 36.51%

Question: With `CC[C@H](C)/C=C(C)/C=C/C1=CC2=C(Cl)C(=O)[C@](C)(O)C(=O)C2=CN1c1ccc(OC)c(OC)c1` as the compound, how does the Activity [1] read?
Answer: 5.75%

Question: For `CC[C@H](C)/C=C(C)/C=C/C1=CC2=C(Cl)C(=O)[C@](C)(OC(C)=O)C(=O)C2=CN1Cc1ccc(C(F)(F)F)cc1`, which Activity [1] is on record?
Answer: 44.16%

Question: With `CC[C@H](C)/C=C(C)/C=C/C1=CC2=C(Cl)C(=O)[C@](C)(OC(C)=O)C(=O)C2=CN1c1ccc(OC(F)(F)F)cc1` as the compound, how does the Activity [1] read?
Answer: 22.81%

Question: With `CC[C@H](C)/C=C(C)/C=C/C1=CC2=C(Cl)C(=O)[C@](C)(O)C(=O)C2=CN1c1cc(OC)cc(OC)c1` as the compound, how does the Activity [1] read?
Answer: 11.14%

Question: Which Activity [1] does the source give for `CC[C@H](C)/C=C(C)/C=C/C1=CC2=C(Cl)C(=O)[C@](C)(OC(C)=O)C(=O)C2=CN1CCc1cccc(C(F)(F)F)c1` here?
Answer: 35.93%

Question: Which Activity [1] does the source give for `CC[C@H](C)/C=C(C)/C=C/C1=CC2=C(Cl)C(=O)[C@](C)(OC(C)=O)C(=O)C2=CN1Cc1ccc(OC)cc1` here?
Answer: 6.58%

Question: For `CC[C@H](C)/C=C(C)/C=C/C1=CC2=C(Cl)C(=O)[C@](C)(OC(C)=O)C(=O)C2=CN1Cc1ccc(C(F)(F)F)cn1`, which Activity [1] is on record?
Answer: 21.49%
